Source: patent US20240139333A1, “2,6-DICHLOROPHENYL ESTER COMPOUNDS AND USE THEREOF” (Fusion Pharmaceuticals Inc., priority 2021, published 2024)
One block for each molecule: values may come before it.

How the values were obtained:
[1] = Comparative active ester reactivity study with HOPO nucleophile; details: 1,2-HOPO 1 eq., 22±2° C.
Description: (§1) General Experimental Protocol for Comparative Active Ester Reactivity Study with HOPO or HOA Nucleophiles
(§2) To a 4 mL scintillation vial containing Compound A-E (in respective experiments; 1 eq.) was added a stir bar followed by 150 μL of HPLC grade acetonitrile. In another 4 mL scintillation vial containing a respective nucleophile (1 eq.) was added 280 μL HPLC grade water. The solutions were combined and allowed to stir at room temperature (22±2° C.) for 4 hours. Timed aliquots at time (T)=15, 30, 60, 120 and 240 minutes were taken and analyzed by HPLC-MS using elution method 1 (Table 1).

DMSO stability study = assay type: physicochemical
Description: To a 4 mL scintillation vial containing Compound A-E (in respective experiments; 4 mg) was added a stir bar followed by 500 μL of anhydrous dimethyl sulfoxide and was allowed to stir at room temperature (22±2° C.) for 4 hours. Timed aliquots at time (T)=15, 30, 60, 120 and 240 minutes were taken, dissolved in water to achieve 2% DMSO composition and analyzed by HPLC-MS using elution method 1 (Table 5).

[2] = Temperature stability study in H2O; assay type: physicochemical
Description: 20° C.: To a 4 mL scintillation vial containing Compound A-E (in respective experiments; 0.8 mg) was added 4 mL of HPLC grade water to create a 0.2 mg/mL solution. 2 mL of this solution was added to a 2 mL HPLC vial and placed in the auto sampler of an HPLC-MS at 20° C. Timed aliquots at time (T)=15, 30, 60, 120, 240 and 480 minutes were taken and analyzed by HPLC-MS using elution method 1 (Table 4).
50° C.: To a 4 mL scintillation vial containing Compound A-E (in respective experiments; 0.8 mg) was added a stir bar followed by 4 mL of HPLC grade water to create a 0.2 mg/mL solution. The vial was capped and allowed to stir in a 50° C. oil bath for 8 hours. Timed aliquots at time (T) =15, 30, 60, 120, 240 and 480 minutes were taken and analyzed by HPLC-MS using elution method 1 (Table 4).

[3] = Comparative active ester reactivity study with HOA nucleophile (N-hydroxy-N-methylbenzamide); details: N-Hydroxy-N-methylbenzamide 1 eq., 22±2° C.
Description: as §1, §2

[4] = Active ester reactivity study with amino acids (N-Acetyl-L-Cysteine); details: N-Acetyl-L-Cysteine 5 eq., 22±2° C.
Description: General Experimental Protocol for Nucleophilic Reactivity Study with Amino Acids
as §2, with “A or C (1” for “A-E (in respective experiments; 1”, “70” for “150”, “amino acid (1-5” for “nucleophile (1”, “130” for “280”, “water followed by diisopropylethylamine (5 eq.).” for “water.”, “6).” for “1).”

[5] = Comparative active ester reactivity study with HOA nucleophile (benzhydroxamic acid); details: Benzhydroxamic Acid 1 eq., 22±2° C.
Description: as §1, §2

[6] = Nucleophilic reactivity study with L-Lysine; details: L-Lysine 5 equiv
Description: General Experimental Protocol for Nucleophilic Reactivity Study with L-Lysine
To a 4 mL scintillation vial containing Compound A-E (in respective experiments; 1 eq.) was added a stir bar followed by 70 μL of HPLC grade acetonitrile. In another 4 mL scintillation vial containing L-Lysine monohydrochloride (5 eq.) was added 130 μL HPLC grade water followed by diisopropylethylamine (5 eq.). The solutions were combined and allowed to stir at room temperature (22±2° C.). Timed aliquots at time (T)=15, 30, 60 and 120 minutes were taken and analyzed by HPLC-MS using elution method 1 (Table 2).

SMILES: O=C(CCc1cccnc1)Oc1c(Cl)cccc1Cl [Compound A, 2,6-Dichlorophenyl-3-(pyridin-3-yl)propanoate]
- % Active Ester Remaining ([1]; 15 min): 99.32%
- % Active Ester Remaining ([1]; 30 min): 98.56%
- % Active Ester Remaining ([1]; 60 min): 96.90%
- % Active Ester Remaining ([1]; 120 min): 95.51%
- % Active Ester Remaining ([1]; 240 min): 93.74%
- % Active Ester Remaining in DMSO at 22 ± 2° C. (DMSO stability study; 15 min): 100%
- % Active Ester Remaining in DMSO at 22 ± 2° C. (DMSO stability study; 30 min): 99.95%
- % Active Ester Remaining in DMSO at 22 ± 2° C. (DMSO stability study; 60 min): 99.81%
- % Active Ester Remaining in DMSO at 22 ± 2° C. (DMSO stability study; 120 min): 99.75%
- % Active Ester Remaining in DMSO at 22 ± 2° C. (DMSO stability study; 240 min): 99.60%
- % Remaining ([2]; 20° C., 15 min): 100%
- % Remaining ([2]; 20° C., 30 min): 100%
- % Remaining ([2]; 20° C., 60 min): 100%
- % Remaining ([2]; 20° C., 120 min): 100%
- % Remaining ([2]; 20° C., 240 min): 100%
- % Remaining ([2]; 20° C., 480 min): 100%
- % Remaining ([2]; 50° C., 15 min): 96.12%
- % Remaining ([2]; 50° C., 30 min): 92.86%
- % Remaining ([2]; 50° C., 60 min): 88.94%
- % Remaining ([2]; 50° C., 120 min): 84.24%
- % Remaining ([2]; 50° C., 240 min): 82.50%
- % Remaining ([2]; 50° C., 480 min): 81.87%
- % Active Ester Remaining ([3]; 15 min): 99.57%
- % Active Ester Remaining ([3]; 30 min): 99.24%
- % Active Ester Remaining ([3]; 60 min): 98.36%
- % Active Ester Remaining ([3]; 120 min): 96.11%
- % Active Ester Remaining ([3]; 240 min): 92.22%
- % Active Ester Remaining ([4]; 15 min): 100%
- % Active Ester Remaining ([4]; 30 min): 99.86%
- % Active Ester Remaining ([4]; 60 min): 99.84%
- % Active Ester Remaining ([4]; 120 min): 99.70%
- % Active Ester Remaining ([4]; 240 min): 82.52%
- % Active Ester Remaining ([5]; 15 min): 97.05%
- % Active Ester Remaining ([5]; 30 min): 95.97%
- % Active Ester Remaining ([5]; 60 min): 92.36%
- % Active Ester Remaining ([5]; 120 min): 86.65%
- % Active Ester Remaining ([5]; 240 min): 78.07%
- % Active Ester Remaining ([6]; 15 min, 22±2° C.): 60.44%
- % Active Ester Remaining ([6]; 30 min, 22±2° C.): 26.31%
- % Active Ester Remaining ([6]; 60 min, 22±2° C.): 0.98%
- % Active Ester Remaining ([6]; 120 min, 22±2° C.): 0%
- % Active Ester Remaining ([6]; DMAP 10 mol % added, 15 min): 0.86%
- % Active Ester Remaining ([6]; DMAP 10 mol % added, 30 min): 0%

- % Active Ester Remaining ([1]; 15 min): 40.02%
- % Active Ester Remaining ([1]; 30 min): 17.81%
- % Active Ester Remaining ([1]; 60 min): 9.78%
- % Active Ester Remaining ([1]; 120 min): 5.19%
- % Active Ester Remaining ([1]; 240 min): 0.94%
- % Active Ester Remaining in DMSO at 22 ± 2° C. (DMSO stability study; 15 min): 96.55%
- % Active Ester Remaining in DMSO at 22 ± 2° C. (DMSO stability study; 30 min): 94.71%
- % Active Ester Remaining in DMSO at 22 ± 2° C. (DMSO stability study; 60 min): 93.91%
- % Active Ester Remaining in DMSO at 22 ± 2° C. (DMSO stability study; 120 min): 92.60%
- % Active Ester Remaining in DMSO at 22 ± 2° C. (DMSO stability study; 240 min): 88.57%
- % Remaining ([2]; 20° C., 15 min): 95.77%
- % Remaining ([2]; 20° C., 30 min): 91.82%
- % Remaining ([2]; 20° C., 60 min): 87.38%
- % Remaining ([2]; 20° C., 120 min): 81.04%
- % Remaining ([2]; 20° C., 240 min): 70.85%
- % Remaining ([2]; 20° C., 480 min): 56.62%
- % Remaining ([2]; 50° C., 15 min): 79.21%
- % Remaining ([2]; 50° C., 30 min): 74.51%
- % Remaining ([2]; 50° C., 60 min): 65.73%
- % Remaining ([2]; 50° C., 120 min): 42.50%
- % Remaining ([2]; 50° C., 240 min): 6.78%
- % Remaining ([2]; 50° C., 480 min): 2.35%
- % Active Ester Remaining ([3]; 15 min): 81.12%
- % Active Ester Remaining ([3]; 30 min): 72.43%
- % Active Ester Remaining ([3]; 60 min): 61.68%
- % Active Ester Remaining ([3]; 120 min): 50.09%
- % Active Ester Remaining ([3]; 240 min): 37.80%
- % Active Ester Remaining ([4]; 15 min): 95.12%
- % Active Ester Remaining ([4]; 30 min): 91.95%
- % Active Ester Remaining ([4]; 60 min): 85.25%
- % Active Ester Remaining ([4]; 120 min): 56.62%
- % Active Ester Remaining ([4]; 240 min): 0%
- % Active Ester Remaining ([5]; 15 min): 58.86%
- % Active Ester Remaining ([5]; 30 min): 45.60%
- % Active Ester Remaining ([5]; 60 min): 32.39%
- % Active Ester Remaining ([5]; 120 min): 18.88%
- % Active Ester Remaining ([5]; 240 min): 9.26%
- % Active Ester Remaining ([6]; 15 min, 22±2° C.): 0%
SMILES: O=C(CCc1cccnc1)Oc1c(F)c(F)cc(F)c1F [Compound C, 2,3,5,6-Tetrafluorophenyl-3-(pyridin-3-yl)propanoate]
